Molecular target: T1, Kir3.1/3.4 (Rattus norvegicus, UniProt P48548+P63251)
T1 construct: expressed in transfected cells
T1 sequence (P63251 1-501): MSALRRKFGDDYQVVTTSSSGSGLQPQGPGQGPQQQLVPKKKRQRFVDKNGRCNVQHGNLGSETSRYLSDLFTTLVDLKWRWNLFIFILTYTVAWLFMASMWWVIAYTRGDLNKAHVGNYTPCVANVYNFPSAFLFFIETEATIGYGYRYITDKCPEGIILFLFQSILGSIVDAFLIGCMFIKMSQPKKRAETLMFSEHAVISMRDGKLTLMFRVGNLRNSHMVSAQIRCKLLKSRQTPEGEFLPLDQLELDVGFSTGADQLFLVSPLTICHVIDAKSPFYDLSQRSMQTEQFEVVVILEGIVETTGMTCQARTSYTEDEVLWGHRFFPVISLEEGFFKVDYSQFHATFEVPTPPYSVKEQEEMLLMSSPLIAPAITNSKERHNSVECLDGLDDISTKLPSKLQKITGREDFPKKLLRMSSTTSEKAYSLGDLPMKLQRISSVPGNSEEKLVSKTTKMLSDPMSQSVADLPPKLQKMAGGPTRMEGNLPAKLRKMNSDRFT
T1 sequence (P48548 1-419): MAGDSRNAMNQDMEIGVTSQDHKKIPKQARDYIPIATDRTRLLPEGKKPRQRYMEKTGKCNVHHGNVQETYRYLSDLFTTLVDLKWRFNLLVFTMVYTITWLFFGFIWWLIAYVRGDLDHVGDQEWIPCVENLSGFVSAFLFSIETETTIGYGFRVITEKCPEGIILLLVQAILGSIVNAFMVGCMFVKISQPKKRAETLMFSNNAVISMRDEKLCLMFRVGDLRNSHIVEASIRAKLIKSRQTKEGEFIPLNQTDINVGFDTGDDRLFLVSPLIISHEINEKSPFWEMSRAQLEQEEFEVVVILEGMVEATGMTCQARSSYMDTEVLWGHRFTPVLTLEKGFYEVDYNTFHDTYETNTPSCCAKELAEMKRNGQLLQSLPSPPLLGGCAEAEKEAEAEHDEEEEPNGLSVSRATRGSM
Test: Kir3.1/3.4 Q-patch Method (automated patch clamp, Sophion Q-patch)
Assay type: cell-based
Details: HEK293 cells stably-expressing Kir3.1/3.4; current at -120 mV; QPatch-16 or QPatch-48
Method: For automated patch-clamp studies using the Sophion Q-patch, accumulative concentration-responses experiments were conducted to determine compound activity against the ion channel target. Voltage-clamp experiments were performed using HEK293 cells stably-expressing Kir3.1/3.4 using either a QPatch-16 or QPatch-48 (Sophion Bioscience A/S). A voltage waveform (VHold−20 mV, step to 60 mV for 100 ms, ramp to −120 mV over 500 ms, hold at −120 mV for 100 ms before returning to VHold) was repeatedly applied to the cells under voltage-clamp at a frequency of 0.1 Hz to elicit Kir3.1/3.4 currents. Mean current at −120 mV was measured in the absence (Icontrol) and presence of drug (IDrug). Assessment of passive leak was performed by removal of external potassium (IZero). Leak current was subtracted from control and drug recordings. Current inhibition (%) was calculated as {1−[(IDrug−IZero)/(IControl−IZero)]}*100. Data were fitted with a sigmoidal function to yield an IC50 and Hill coefficient. Composition of external experimental buffer was (in mM): 40 NaCl, 100 KCl, 5 CaCl2, 1 MgCl2, 10 HEPES pH 7.4. Composition of internal solution was (in mM). 40 K-gluconate, 60 KF, 20 NaCl, 5 Mg-ATP, 0.9 GTPgS, 20 EGTA, pH 7.2. Compounds were formulated in DMSO and diluted in buffer to give a final drug concentration of between […] and a final DMSO concentration of 0.1-0.3%.

Row | SMILES | IC50 [nM]
1 | Clc1ccccc1-c1csc2nc(N3CCOCC3)nc(N3C4CCC3COC4)c12 [Example 425, 8-[5-(2-chlorophenyl)-2-morpholino-thieno[2,3-d]pyrimidin-4-yl]-3-oxa-8-azabicyclo[3.2.1]octane] | < 500
2 | COc1ccccc1-c1csc2nc(N3CCC(C(N)=O)C3)nc(N3C4CCC3CC(OC)C4)c12 (stereo not shown) [Example 396, 1-[4-(3-methoxy-8-azabicyclo[3.2.1]octan-8-yl)-5-(2-methoxyphenyl)thieno[2,3-d]pyrimidin-2-yl]pyrrolidine-3-carboxamide] | < 500
3 | NC(=O)C1CN(c2nc(N3C4CCC3COC4)c3c(-c4ccccc4Cl)csc3n2)CCN1 (stereo not shown) [Example 416, 4-[5-(2-chlorophenyl)-4-(3-oxa-8-azabicyclo[3.2.1]octan-8-yl)thieno[2,3-d]pyrimidin-2-yl]piperazine-2-carboxamide] | < 500
4 | NC(=O)C1CCCN(c2nc(N3C4CCC3COC4)nc3scc(-c4ccccc4Cl)c23)C1 (stereo not shown) [Example 411, 1-[5-(2-chlorophenyl)-2-(3-oxa-8-azabicyclo[3.2.1]octan-8-yl)thieno[2,3-d]pyrimidin-4-yl]piperidine-3-carboxamide] | 500 to 3000
5 | COc1ccccc1-c1csc2nc(N3CCOC(C(N)=O)C3)nc(N3C4CCC3CC(OC)C4)c12 (stereo not shown) [Example 409, 4-[4-(3-methoxy-8-azabicyclo[3.2.1]octan-8-yl)-5-(2-methoxyphenyl)thieno[2,3-d]pyrimidin-2-yl]morpholine-2-carboxamide] | 500 to 3000
6 | COCC1CC2CCC(C1)N2c1nc(N2CCC(C(N)=O)C2)nc2scc(-c3ccccc3OC)c12 (stereo not shown) [Example 376, 1-[4-[3-(methoxymethyl)-8-azabicyclo[3.2.1]octan-8-yl]-5-(2-methoxyphenyl)thieno[2,3-d]pyrimidin-2-yl]pyrrolidine-3-carboxamide] | 500 to 3000
7 | COc1ccccc1-c1csc2nc(C#N)nc(N3C4CCC3CC(OC)C4)c12 (stereo not shown) [Example 405, 4-(3-methoxy-8-azabicyclo[3.2.1]octan-8-yl)-5-(2-methoxyphenyl)thieno[2,3-d]pyrimidine-2-carbonitrile] | 500 to 3000
8 | NC(=O)C1CCCN(c2nc(N3C4CCC3COC4)c3c(-c4ccccc4Cl)csc3n2)C1 (stereo not shown) [Example 410, 1-[5-(2-chlorophenyl)-4-(3-oxa-8-azabicyclo[3.2.1]octan-8-yl)thieno[2,3-d]pyrimidin-2-yl]piperidine-3-carboxamide] | 500 to 3000
9 | COCC1CC2CCC(C1)N2c1nc(C#N)nc2scc(-c3ccccc3OC)c12 (stereo not shown) [Example 406, 4-[3-(methoxymethyl)-8-azabicyclo[3.2.1]octan-8-yl]-5-(2-methoxyphenyl)thieno[2,3-d]pyrimidine-2-carbonitrile] | < 500
10 | COc1ccccc1-c1csc2nc(N3C4CCC3CC(CO)C4)nc(N3C4CCC3CC(OC)C4)c12 (stereo not shown) [Example 371, [8-[4-(3-methoxy-8-azabicyclo[3.2.1]octan-8-yl)-5-(2-methoxyphenyl)thieno[2,3-d]pyrimidin-2-yl]-8-azabicyclo[3.2.1]octan-3-yl]methanol] | 500 to 3000
11 | COc1ccccc1-c1csc2nc(N3CCNC(=O)C3)nc(N3C4CCC3COC4)c12 [Example 403, 4-[5-(2-methoxyphenyl)-4-(3-oxa-8-azabicyclo[3.2.1]octan-8-yl)thieno[2,3-d]pyrimidin-2-yl]piperazin-2-one] | < 500
12 | COC1CC2CCC(C1)N2c1nc(N2CCCC(C(N)=O)C2)c2c(-c3ccccc3Cl)csc2n1 (stereo not shown) [Example 374, 1-[5-(2-chlorophenyl)-2-(3-methoxy-8-azabicyclo[3.2.1]octan-8-yl)thieno[2,3-d]pyrimidin-4-yl]piperidine-3-carboxamide] | < 500
13 | COc1ccccc1-c1csc2nc(N3C4CCC3CC(CO)C4)nc(N3CCNC(=O)C3)c12 (stereo not shown) [Example 413, 4-[2-[3-(hydroxymethyl)-8-azabicyclo[3.2.1]octan-8-yl]-5-(2-methoxyphenyl)thieno[2,3-d]pyrimidin-4-yl]piperazin-2-one] | < 500
14 | COCC1CC2CCC(C1)N2c1nc(N2CCNC(=O)C2)nc2scc(-c3ccccc3OC)c12 (stereo not shown) [Example 378, 4-[4-[3-(methoxymethyl)-8-azabicyclo[3.2.1]octan-8-yl]-5-(2-methoxyphenyl)thieno[2,3-d]pyrimidin-2-yl]piperazin-2-one] | 500 to 3000
15 | COC1CC2CCC(C1)N2c1nc(N2C3CCC2CC(O)C3)nc2scc(-c3ccccc3Cl)c12 (stereo not shown) [Example 375, 8-[5-(2-chlorophenyl)-4-(3-methoxy-8-azabicyclo[3.2.1]octan-8-yl)thieno[2,3-d]pyrimidin-2-yl]-8-azabicyclo[3.2.1]octan-3-ol] | 500 to 3000
16 | OC1CCN(c2nc(N3C4CCC3COC4)c3c(-c4ccccc4Cl)csc3n2)C1 (stereo not shown) [Example 426, 1-[5-(2-chlorophenyl)-4-(3-oxa-8-azabicyclo[3.2.1]octan-8-yl)thieno[2,3-d]pyrimidin-2-yl]pyrrolidin-3-ol] | < 500
17 | OC1CC2CCC(C1)N2c1nc(N2C3CCC2COC3)c2c(-c3ccccc3Cl)csc2n1 (stereo not shown) [Example 421, 8-[5-(2-chlorophenyl)-4-(3-oxa-8-azabicyclo[3.2.1]octan-8-yl)thieno[2,3-d]pyrimidin-2-yl]-8-azabicyclo[3.2.1]octan-3-ol] | < 500
18 | COCC1CC2CCC(C1)N2c1nc(N2C3CCC2CC(O)C3)nc2scc(-c3ccccc3OC)c12 (stereo not shown) [Example 372, 8-[4-[3-(methoxymethyl)-8-azabicyclo[3.2.1]octan-8-yl]-5-(2-methoxyphenyl)thieno[2,3-d]pyrimidin-2-yl]-8-azabicyclo[3.2.1]octan-3-ol] | < 500
19 | COC1CC2CCC(C1)N2c1nc(N2CCNC(=O)C2)nc2scc(-c3ccccc3Cl)c12 (stereo not shown) [Example 391, 4-[5-(2-chlorophenyl)-4-(3-methoxy-8-azabicyclo[3.2.1]octan-8-yl)thieno[2,3-d]pyrimidin-2-yl]piperazin-2-one] | 500 to 3000
20 | NC(=O)C1CCN(c2nc(N3C4CCC3COC4)c3c(-c4ccccc4Cl)csc3n2)C1 (stereo not shown) [Example 422, 1-[5-(2-chlorophenyl)-4-(3-oxa-8-azabicyclo[3.2.1]octan-8-yl)thieno[2,3-d]pyrimidin-2-yl]pyrrolidine-3-carboxamide] | 500 to 3000
21 | COc1ccccc1-c1csc2nc(N3CCCC(C(N)=O)C3)nc(N3C4CCC3COC4)c12 (stereo not shown) [Example 399, 1-[5-(2-methoxyphenyl)-4-(3-oxa-8-azabicyclo[3.2.1]octan-8-yl)thieno[2,3-d]pyrimidin-2-yl]piperidine-3-carboxamide] | 500 to 3000
22 | NC(=O)C1CCCN(c2nc(N3C4CCC3CC(CO)C4)nc3scc(-c4ccccc4Cl)c23)C1 (stereo not shown) [Example 393, 1-[5-(2-chlorophenyl)-2-[3-(hydroxymethyl)-8-azabicyclo[3.2.1]octan-8-yl]thieno[2,3-d]pyrimidin-4-yl]piperidine-3-carboxamide] | < 500
23 | COc1ccccc1-c1csc2nc(N3CCC(O)C3)nc(N3C4CCC3COC4)c12 (stereo not shown) [Example 404, 1-[5-(2-methoxyphenyl)-4-(3-oxa-8-azabicyclo[3.2.1]octan-8-yl)thieno[2,3-d]pyrimidin-2-yl]pyrrolidin-3-ol] | < 500
24 | COC1CC2CCC(C1)N2c1nc(N2CCNC(C(N)=O)C2)nc2scc(-c3ccccc3Cl)c12 (stereo not shown) [Example 392, 4-[5-(2-chlorophenyl)-4-(3-methoxy-8-azabicyclo[3.2.1]octan-8-yl)thieno[2,3-d]pyrimidin-2-yl]piperazine-2-carboxamide] | < 500
25 | COc1ccccc1-c1csc2nc(N3CCNC(C(N)=O)C3)nc(N3C4CCC3COC4)c12 (stereo not shown) [Example 398, 4-[5-(2-methoxyphenyl)-4-(3-oxa-8-azabicyclo[3.2.1]octan-8-yl)thieno[2,3-d]pyrimidin-2-yl]piperazine-2-carboxamide] | < 500

— patent publication US9290511B2, “Thieno-pyrimidines, useful as potassium channel inhibitors” (XENTION LIMITED, priority 2011, dated 2016)
